This passage reports GI50 results from patent publication US11753397B2, “Cereblon binders for the degradation of ikaros” (C4 Therapeutics, Inc., priority 2018, dated 2023).

The term GI50 denotes the concentration giving 50% growth inhibition.

The test system of the experiment is NCIH929.1 cells. The experiment can be described thus: Cell viability assay (CellTiter-Glo 2.0, ATP quantification). The conditions noted are these: NCIH929.1 cell viability, CellTiter-Glo 2.0, 96 hr incubation, top concentration 1 μM. It counts as cell-based. The procedure, abridged: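 Read-out is CellTiter-Glo 2.0 luminescence (ATP), after 96 h compound exposure at 37 °C, with a day-0 plate giving the CT0 baseline. Duplicate 10-point half-log titration from 1 μM applied to 750 cells/well in RPMI, 10% FBS, 0.05 mM 2-mercaptoethanol.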
A general note: In ATP-based viability assays light output follows the ATP content of the culture.
As to `O=C1CCC(N2C(=O)c3cccc(NCc4cnn(C5CCN(C6CC6)CC5)c4)c3C2=O)C(=O)N1` (stereo not drawn) [Compound 134, 4-(((1-(1-cyclopropylpiperidin-4-yl)-1H-pyrazol-4-yl)methyl)amino)-2-(2,6-dioxopiperidin-3-yl)isoindoline-1,3-dione], the GI50 is under 100 nM. Next, `O=C1CCC(N2C(=O)c3cccc(NCc4cnn(C5CCN(C6CC7(CCC7)C6)CC5)c4)c3C2=O)C(=O)N1` (stereo not drawn) [Compound 135, 2-(2,6-dioxopiperidin-3-yl)-4-(((1-(1-(spiro[3.3]heptan-2-yl)piperidin-4-yl)-1H-pyrazol-4-yl)methyl)amino)isoindoline-1,3-dione]: under 100 nM; `CC1(CN2CCC(n3cc(CNc4cccc5c4C(=O)N(C4CCC(=O)NC4=O)C5=O)cn3)CC2)CC1` (stereo not drawn) [Compound 136, 2-(2,6-dioxopiperidin-3-yl)-4-(((1-(1-((1-methylcyclopropyl)methyl)piperidin-4-yl)-1H-pyrazol-4-yl)methyl)amino)isoindoline-1,3-dione]: under 1 nM.

Take `O=C1CCC(N2C(=O)c3cccc(NCc4cnn(C5CCN(CC6(C(F)(F)F)CC6)CC5)c4)c3C2=O)C(=O)N1` (stereo not drawn) [Compound 137, 2-(2,6-dioxopiperidin-3-yl)-4-(((1-(1-((1-(trifluoromethyl)cyclopropyl)methyl)piperidin-4-yl)-1H-pyrazol-4-yl)methyl)amino)isoindoline-1,3-dione]: the GI50 is under 100 nM.

With `CC1(CN2CCC(n3cc(CNc4cccc5c4C(=O)N(C4CCC(=O)NC4=O)C5=O)cn3)CC2)CCCC1` (stereo not drawn) [Compound 138, 2-(2,6-dioxopiperidin-3-yl)-4-(((1-(1-((1-methylcyclopentyl)methyl)piperidin-4-yl)-1H-pyrazol-4-yl)methyl)amino)isoindoline-1,3-dione], the GI50 is under 1 nM. `CC1(CN2CCC(n3cc(CNc4cccc5c4C(=O)N(C4CCC(=O)NC4=O)C5=O)cn3)CC2)CCC1` (stereo not drawn) [Compound 139, 2-(2,6-Dioxo-piperidin-3-yl)-4-({1-[1-(1-methyl-cyclobutylmethyl)-piperidin-4-yl]-1H-pyrazol-4-ylmethyl}-amino)-isoindole-1,3-dione] displayed a GI50 of under 100 nM. Take `O=C1CCC(N2C(=O)c3cccc(NCc4cnn(C5CCN(CC6(C(F)(F)F)CCC6)CC5)c4)c3C2=O)C(=O)N1` (stereo not drawn) [Compound 140, 2-(2,6-dioxopiperidin-3-yl)-4-(((1-(1-((1-(trifluoromethyl)cyclobutyl)methyl)piperidin-4-yl)-1H-pyrazol-4-yl)methyl)amino)isoindoline-1,3-dione]: the GI50 is under 100 nM. Next, `Cn1cc(CNc2cccc3c2C(=O)N(C2CCC(=O)NC2=O)C3=O)cn1` (stereo not drawn) [Compound 141, 2-(2,6-dioxopiperidin-3-yl)-4-(((1-methyl-1H-pyrazol-4-yl)methyl)amino)isoindoline-1,3-dione]: under 100 nM; `CCn1cc(CNc2cccc3c2C(=O)N(C2CCC(=O)NC2=O)C3=O)cn1` (stereo not drawn) [Compound 142, 2-(2,6-dioxopiperidin-3-yl)-4-(((1-ethyl-1H-pyrazol-4-yl)methyl)amino)isoindoline-1,3-dione]: under 100 nM; `CC(C)Cn1cc(CNc2cccc3c2C(=O)N(C2CCC(=O)NC2=O)C3=O)cn1` (stereo not drawn) [Compound 143, 2-(2,6-dioxopiperidin-3-yl)-4-(((1-isobutyl-1H-pyrazol-4-yl)methyl)amino)isoindoline-1,3-dione]: over 100 nM. With `CC(C)(C)n1cc(CNc2cccc3c2C(=O)N(C2CCC(=O)NC2=O)C3=O)cn1` (stereo not drawn) [Compound 144, 4-(((1-(tert-butyl)-1H-pyrazol-4-yl)methyl)amino)-2-(2,6-dioxopiperidin-3-yl)isoindoline-1,3-dione] the figure was under 100 nM; with `O=C1CCC(N2C(=O)c3cccc(NCc4cnn(-c5ccccc5)c4)c3C2=O)C(=O)N1` (stereo not drawn) [Compound 145, 2-(2,6-dioxopiperidin-3-yl)-4-(((1-phenyl-1H-pyrazol-4-yl)methyl)amino)isoindoline-1,3-dione], under 100 nM.
